According to patent US9840547B2, “Hepatic insulin sensitizing substance and test meal for insulin sensitization” (SciMar Ltd., priority 2013, dated 2017):

Key:
[1] = literature; cited from earlier work
[2] = test system: cultured L6 skeletal muscle cells; assay: Plasma HISS activity on glucose uptake in cultured L6 skeletal muscle cells (2-NBDG bioassay); format: cell-based; settings: plasma insulin concentration versus RFU, linear regression
Protocol: Individual plasma samples were tested in 1-3 wells/sample with 2 measurements/well.

[3] = Time course of hypoglycemic action in rats; format: in vivo; settings: after an intravenous injection
[4] = Time course of hypoglycemic action in humans; format: in vivo; settings: after an intravenous injection

Substance | hypoglycemic action [1] | stimulation of glucose uptake response in L6 cells [2] | time at which action returns to baseline [3] [min] | time at which action returns to baseline [4] [min]
bone morphogenetic protein 9 | no rapid hypoglycemic effect | – | – | –
insulin | – | not stimulated by insulin | 35 | 90
